Data: patent US9012493B2, “1-heterodiene derivative and pest control agent” (Nippon Soda Co., Ltd., priority 2009, dated 2015)

Experiments:
Assay type in all cases: in vivo
[1] = system: Sweetpotato Whitefly (Bemisia Tabaci); test: Efficacy test against sweetpotato whitefly, sprayed tomato leaf; conditions: 125 ppm, emulsifiable concentrate diluted with water, adults (type B), after 2 days, 25° C.
Description: (§1) Test Examples of the pest control agent thus obtained according to the present invention are shown below. In respective Test Examples, the insecticidal rate (%) was determined by the following calculation equation. Insecticidal rate (%)=(number of dead pests/number of released pests)×100
The emulsifiable concentrate obtained according to Formulation of Formulation Example 2 was diluted with water so as to control the concentration of the compound to 125 ppm. The diluted solution was sprayed over a tomato leaf obtained by cutting and then air-dried. Using absorbent cotton, the leaf was fixed to a flask so that a front surface of the leaf faces upward. Seven pairs of adults of sweetpotato whitefly (type B) were inoculated in this container, and the container was placed in a temperature-controlled room at a temperature of 25° C. and a humidity of 65%. After 2 days, life and death were examined and the insecticidal rate was determined. The test was repeated twice.

[2] = system: Twospotted Spider Mite (Tetranychus Urticae Koch); test: Efficacy test against twospotted spider mite, spray on kidney bean plant; conditions: 125 ppm, wettable powder diluted with water, sprayed, female adults with resistance to an organophosphorus agent on kidney bean, after 3 days
Description: The wettable powder obtained according to Formulation of Formulation Example 1 was diluted with water so as to control the concentration of the compound to 125 ppm. Seventeen female adults of twospotted spider mite with resistance to an organophosphorus agent were inoculated on a first true leaf of a kidney bean plant (approximately 7 to 10 days after sprouting) sown in a 3 sun/size pot (9 cm). The diluted solution was sprayed. The pot was placed in a temperature-controlled room at a temperature of 25° C. and a humidity of 65%. After 3 days, the adulticidal rate was examined. The test was repeated twice.

[3] = system: Rice Armyworm (Mythimna Separata); test: Efficacy test against rice armyworm, corn leaf dip; conditions: 125 ppm, emulsifiable concentrate diluted with water, corn leaves immersed, second instar larvae, after 5 days, 25° C.
Description: as §1
The emulsifiable concentrate obtained according to Formulation of Formulation Example 2 was diluted with water so as to control the concentration of the compound to 125 ppm. Leaves of corn were immersed in this diluted solution for 30 seconds and then air-dried. The leaves were put in a petri dish on which a filter paper is laid, and then five second instar larvae of rice armyworm were inoculated. After covering the petri dish with a glass lid, the petri dish was placed in a temperature-controlled room at a temperature of 25° C. and a humidity of 65%. After 5 days, life and death were examined and the insecticidal rate was determined. The test was repeated twice.

[4] = system: Cotton Aphid (Aphis Gossypii); test: Efficacy test against cotton aphid, spray on cucumber plant; conditions: 125 ppm, emulsifiable concentrate diluted with water, sprayed over cucumber plant with nymphs, after 5 days, 25° C.
Description: as §1
The emulsifiable concentrate obtained according to Formulation of Formulation Example 2 was diluted with water so as to control the concentration of the compound to 125 ppm. Adults of cotton aphids were inoculated to a cucumber plant (approximately 10 days after sprouting) sown in a 3 sun/size pot (9 cm). After 1 day, adult aphids were removed and the diluted solution was sprayed over the cucumber plant on which delivered nymphs are parasitic. The pot was placed in a temperature-controlled room at a temperature of 25° C. and a humidity of 65%. After 5 days, life and death were examined and the insecticidal rate was determined. The test was repeated twice.

Structure (SMILES) | insecticidal rate [1] | adulticidal rate [2] | insecticidal rate [3] | insecticidal rate [4]
CC(C)=C1CCC(=CSc2ccc(F)cc2)C(=Nc2ccc(C)cc2)S1 (mixture of isomers) [Compound 6-2] | 100% | 100% | 100% | –
C=C1SC(=Nc2ccc(C)cc2)C(=CSc2cccnc2)CC1(C)C (mixture of isomers) [Compound 6-6] | 100% | 100% | 100% | –
C=C1SC(=Nc2cc(OC)cc(OC)c2)C(=CSc2ccccc2)CC1(C)C [Compound 2-38] | 100% | 100% | – | –
C=C1SC(=Nc2c(C)cc(C)cc2C)C(=CSc2ccccc2)CC1(C)C [Compound 2-63] | 100% | – | 100% | 100%
C=C1SC(=Nc2c(F)cc(OC)cc2F)C(=CSc2ccccc2)CC1(C)C [Compound 2-65] | 100% | – | 100% | 100%
C=C1SC(=Nc2c(C)cc(C)cc2C)C(=CSc2cccs2)CC1(C)C [Compound 2-66] | 100% | – | 100% | 100%
C=C1SC(=Nc2c(C)cc(OC)cc2C)C(=CSc2ccccc2)CC1(C)C [Compound 2-67] | 100% | – | 100% | 100%
C=C1SC(=Nc2ccc(C)cc2)C(=CSc2cccc(Cl)n2)CC1(C)C [Compound 2-91] | 100% | – | 100% | 100%
C=C1SC(=Nc2ccc(C)cc2)C(=CSc2ccoc2C)CC1(C)C [Compound 2-93] | 100% | – | 100% | 100%
C=C1SC(=Nc2ccc(C)cc2)C(=CSc2ccc(N(C)C)cc2)CC1(C)C [Compound 2-97] | 100% | – | 100% | 100%
C=C1SC(=Nc2ccc(C)cc2)C(=CSc2nccc(C(F)(F)F)n2)CC1(C)C [Compound 2-98] | 100% | – | 100% | 100%
C=C1SC(=Nc2ccc(C)cc2)C(=CSc2cccc(C(C)=O)c2)CC1(C)C [Compound 2-105] | – | 100% | 100% | –
C=C1SC(=Nc2ccc(C)cc2)C(=CSc2ccccc2C)CC1(C)C [Compound 2-111] | – | 100% | 100% | –
C=C1SC(=Nc2ccc(C)cc2)C(=CSCc2ccccc2)CC1(C)C [Compound 2-112] | 100% | – | 100% | 100%
C=C1SC(=Nc2ccc(C)cc2)C(=CSc2ccc3ccccc3n2)CC1(C)C [Compound 2-113] | – | 100% | 100% | –
C=C1SC(=Nc2ccc(C)cc2)C(=CSc2nccc(C)n2)CC1(C)C [Compound 2-121] | 100% | – | 100% | 100%
C#CCSC=C1CC(C)(C)C(=C)SC1=Nc1ccc(C)cc1 [Compound 2-122] | 100% | – | 100% | 100%
C=C1SC(=Nc2ccc(OC)cc2)C(=CSc2nccc(C)n2)CC1(C)C [Compound 2-127] | 100% | – | 100% | 100%
C=C1SC(=Nc2ccccc2)C(=CSc2nccc(C)n2)CC1(C)C [Compound 2-128] | 100% | – | 100% | 100%
C=C1SC(=Nc2ccccc2)C(=CSc2cccs2)CC1(C)C [Compound 2-129] | 100% | – | 100% | 100%
C=C1SC(=Nc2ccc(C)c(C)c2)C(=CSc2nccc(C)n2)CC1(C)C [Compound 2-132] | 100% | – | 100% | 100%
